# Measured values taken from patent US20200253864A1, “VOLATILE ANESTHETIC COMPOSITIONS COMPRISING EXTRACTIVE SOLVENTS FOR REGIONAL ANESTHESIA AND/OR PAIN RELIEF” (The Board of Regents of the University of Texas System, priority 2008, published 2020).
# “And” between values parts separate entries of the source, which are not always exact repeats. Equal entries are not always repeated.
# What was measured:
# [1] = Stability/volatility: weighing remaining isoflurane in uncapped vials over time; type: physicochemical; settings: for Effect of the solvent on the volatility of isoflurane: solution versus pure isoflurane (Table 6)
# Description: The stability of isoflurane in the compositions was determined in two ways. Firstly, the compositions were examined for the presence of phase separation at the macroscopic level. Secondly, isoflurane content of the compositions were determined by weighing the remaining isoflurane in the composition when they were left uncapped over time. […] The other vials received varying amounts of isoflurane. They were left uncapped in the hood. Over time (0, 0.4, 1 , 16 , 24 h), the vials were weighed to see if the isoflurane stayed in the composition or evaporated. The amount evaporated over time in the vehicle was subtracted from that in the isoflurane composition, and therefore the amount of isoflurane in the vehicle was roughly determined at each time point.
# Pure form of isoflurane is a volatile agent. In order to determine the volatility of isoflurane, two vials received the indicated amounts of pure form of isoflurane. The vials were placed in the chemical fume hood and left uncapped. The vials were weighed in the indicated times to determine the amount of evaporated isoflurane. As it is shown in the table below 0.7893g isoflurane was evaporated within 3 hrs whereas 3.4825 g isoflurane took approximately 8 hrs to evaporate completely. These amounts of isoflurane are similar to the amounts of isoflurane that were used to prepare isoflurane (iso) compositions as shown below.
# [2] = tested on: rats; assay: Plantar Heat Stimulation Test (paw withdrawal latency) after subcutaneous injection into hindpaw; type: in vivo, rat; settings: for Antinociceptive effect, treated versus untreated (contralateral) paw: 100 μl subcutaneously into hindpaw (pure isoflurane n=4; 2% lidocaine n=3), P<0.05
# Description: Intraplanar Administration of Isoflurane: 100 μl of pure form Isoflurane or 100 μl of 2% Lidocaine was injected subcutaneously into the planar surface of the hindpaw. Every rat, the contralateral hindpaw, served as its own control.
# Measurement of Paw Withdrawal Latency: Rats are tested for response to thermal stimulation using radiant heat (Planar Analgesia Instrument, UgoBasile, Italy). After the rats acclimate for 15 min under the acrylic boxes that allow minimal movement, the heat source was positioned beneath the mid-plantar surface of the hind paw. Withdrawal latency is defined as the period of time from the beginning of the thermal stimulation to the brisk withdrawal of the hind paw. To avoid tissue damage, a cutoff time of 22s was set. Thermal stimulation was applied three times to each hind paw at an inter-stimulus interval of 3-5 min. Thermalnociceptive threshold was assessed before and after the treatment. An increase in the withdrawal threshold in the treated paw compared to the control paw is assessed as analgesic activity of the tested formulation.
# Statistical Analysis: For statistical comparison, student paired t-test analysis was used. Differences were considered significant at P<0.05.
# [3] = tested on: Sprague-Dawley rats; assay: Intrathecal injection of isoflurane or sevoflurane, hotplate test (thermal withdrawal latency); type: in vivo, rat; settings: for Thermal withdrawal latency, Average (per rat): average of three tests, both paws; for Thermal withdrawal latency, Group Average: four rats; for Thermal withdrawal latency, Test 1 Left / Thermal withdrawal latency, Test 1 Right / Thermal withdrawal latency, Test 2 Left / Thermal withdrawal latency, Test 2 Right / Thermal withdrawal latency, Test 3 Left / Thermal withdrawal latency, Test 3 Right: individual rats, cutoff 25 seconds; for Adverse effects / Full recovery from the intrathecal injection (return to thermal latency baseline): intrathecal 2 microliters, rats; for Analgesic effect: intrathecally delivered dose of 2 microliters
# Description: This study was designed to evaluate efficacy of direct intrathecal injection of anesthetic agent gases in reducing pain and providing analgesia. The study was conducted over a one (1) month period using anesthetic gases isoflurane and sevoflurane injected directly intrathecally or dissolved in saline as shown in the studies below. The subject animal used was the rat, since the rat has a well-established model of pain/analgesia testing. In particular, Sprague-Dawley rats weighing over 350gm were used. The rats were anesthetized with pentobarbital (50mg/kg), and the anesthetic depth of the animals was determined by corneal reflex and paw withdrawal reflex to a noxious stimulus.
# […]. A midline surgical dissection of the posterior neck muscles was performed to obtain access to the occipito-atlantoid membrane. This membrane was identified and then dissected. A sterile polyethylene catheter was introduced in the subarachnoid space until the lumbar enlargement of the spinal cord (approximately 7-8 cm measured in each animal). The surgical wound was closed, first suturing the neck muscles with 3-0 silk sutures and then closing the skin incision with staples.
# After the surgery, the rats were moved to their cages and a radiant lamp was placed over the cages so that the rats would not undergo anesthetic-induced hypothermia. The rats were continuously monitored from the end of the surgery until they were fully awake. Rats showing any motor impairment after surgery were euthanized.
# On the fifth day after surgery, those rats without wound infection or motor dysfunction were transported to the pain behavioral lab to enter the intrathecal study with volatile anesthetics. Twelve rats were selected for the study. All these rats had intrathecal catheters.
# Isoflurane (1-chloro-2,2,2-trifluoroethyl difluoromethyl ether) and sevoflurane (fluoromethyl 2,2,2-trifluoro-1-(trifluoromethyl) ethyl ether) were used as the halogenated ether compounds. Both of these are halogenated volatile anesthetic agents, with isoflurane manufactured by Baxter and sevoflurane manufactured by Abbott Laboratories. The 12 rats were divided into 3 groups of four rats each for study A and B.
# In the first group, 2 microliters of preservative-free normal saline was injected via the intrathecal catheter into each rat. This catheter was then flushed with preservative-free normal saline. Pain behavioral testing on this group was then performed.
# In the second group, 2 microliters of isoflurane was injected via the intrathecal catheter into each rat. This catheter was also flushed with preservative-free normal saline. This group was then subjected to pain behavioral testing.
# In the third group, 2 microliters of sevoflurane was injected via the intrathecal catheter into each rat. This catheter was also flushed with preservative-free normal saline. This group was then subjected to pain behavioral testing.
# A “hotplate” behavioral test was used to evaluate pain perception and analgesia. The pain behavioral testing model used in these studies have been well established by Tony Yaksh. (See, e.g. Chaplan et al., 1994; Yaksh et al., 2001; Kim and Chung, 1992; Sorkin et al., 2001). This test involves determining how quickly a rat will withdraw its hind paw in response to a noxious stimulus such as a radiant heat source placed directly underneath its paw. This time for withdrawal is known as “thermal withdrawal latency”.
# Rats were transferred for testing onto a modified Hargreaves apparatus with a heated glass plate maintained at 25° C. (see Hargreaves et al., 1988). A focused projection bulb below the plate was aimed at the mid-plantar surface of the paw. A photodiode-activated timer measured the withdrawal latency, and a cutoff time of 25 seconds was used to prevent tissue damage. Thermal withdrawal latency to radiant heat was measured at 5 minutes and 30 minutes after each intrathecal injection. Each paw was tested three times, and the results were averaged. […]
# [4] = 100 μl subcutaneously into hindpaw
# [5] = 5 minutes after 2 microliters intrathecal
# [6] = 5 minutes after 2 microliters intrathecal, saline control group 8.33
# [7] = 30 minutes after 2 microliters intrathecal
# [8] = 30 minutes after 2 microliters intrathecal, saline control group 8.40
SMILES,"Start of the antinociceptive effect [2, 4] [min]","Antinociceptive effect, treated versus untreated (contralateral) paw [2]","Thermal withdrawal latency, Average (per rat) [3, 5]","Thermal withdrawal latency, Group Average [3, 6] [s]","Thermal withdrawal latency, Test 1 Left [3, 5]","Thermal withdrawal latency, Test 1 Right [3, 5]","Thermal withdrawal latency, Test 2 Left [3, 5]","Thermal withdrawal latency, Test 2 Right [3, 5]","Thermal withdrawal latency, Test 3 Left [3, 5]","Thermal withdrawal latency, Test 3 Right [3, 5]","Thermal withdrawal latency, Average (per rat) [3, 7]","Thermal withdrawal latency, Group Average [3, 8] [s]","Thermal withdrawal latency, Test 1 Left [3, 7]","Thermal withdrawal latency, Test 1 Right [3, 7]","Thermal withdrawal latency, Test 2 Left [3, 7]","Thermal withdrawal latency, Test 2 Right [3, 7]","Thermal withdrawal latency, Test 3 Left [3, 7]","Thermal withdrawal latency, Test 3 Right [3, 7]",Adverse effects [3],Full recovery from the intrathecal injection (return to thermal latency baseline) [3] [min],further results
"FC(F)OC(Cl)C(F)(F)F (stereo not drawn) [Isoflurane, 1-chloro-2,2,2-trifluoroethyl difluoromethyl ether]",25,significant (P<0.05) antinociceptive effect,19.25 s and 18.21 s and 18.63 s and 17.95 s,18.51,17.23 s and 19.24 s and 18.11 s and 19.71 s,19.81 s and 17.19 s and 19.20 s and 20.31 s,18.91 s and 17.65 s and 19.80 s and 17.18 s,20.38 s and 15.88 s and 17.90 s and 18.34 s,18.82 s and 20.72 s and 20.07 s and 16.38 s,20.34 s and 18.59 s and 16.71 s and 16.75 s,9.48 s and 8.93 s and 10.52 s and 9.21 s,9.53,9.12 s and 6.35 s and 8.37 s and 10.27 s,9.87 s and 9.08 s and 6.32 s and 9.41 s,9.02 s and 8.22 s and 8.45 s and 7.04 s,10.59 s and 7.81 s and 9.48 s and 6.76 s,9.77 s and 11.62 s and 10.48 s and 10.32 s,8.54 s and 10.49 s and 11.03 s and 7.88 s,None of the rats in the study experienced adverse effects,30,"% remaining iso, 0 h ([1]; 0 h): 100%; Time for isoflurane to evaporate ([1]; 0.7893 g pure isoflurane, uncapped): ≤ 3 h; Time for isoflurane to evaporate completely ([1]; 3.4825 g pure isoflurane, uncapped): approximately 8 hrs; % remaining iso, 5 h ([1]; 5 h): 38%; % remaining iso, 7 h ([1]; 7 h): 13%; % remaining iso, 8 h ([1]; 8 h): 3%; Duration of the antinociceptive effect [2, 4]: continued throughout the experiment; Analgesic effect [3]: analgesic effect"
"CN1CCCC1=O [NMP, N-Methyl-2-pyrrolidone]",–,–,–,–,–,–,–,–,–,–,–,–,–,–,–,–,–,–,–,–,Effect of the solvent on the volatility of isoflurane [1]: reduced the volatility of isoflurane
"FCOC(C(F)(F)F)C(F)(F)F [Sevoflurane, fluoromethyl 2,2,2-trifluoro-1-(trifluoromethyl) ethyl ether]",–,–,14.65 s and 13.82 s and 13.14 s and 12.98 s,13.65,14.90 s and 13.38 s and 12.34 s and 11.83 s,13.81 s and 17.19 s and 14.98 s and 10.31 s,15.11 s and 12.31 s and 11.03 s and 12.66 s,13.23 s and 14.29 s and 13.93 s and 13.20 s,14.83 s and 12.01 s and 14.16 s and 12.31 s,16.03 s and 13.75 s and 12.37 s and 17.59 s,8.61 s and 8.35 s and 8.89 s and 9.54 s,8.84,8.54 s and 6.87 s and 8.44 s and 10.93 s,9.23 s and 7.38 s and 10.05 s and 9.55 s,8.29 s and 7.99 s and 11.74 s and 6.68 s,7.30 s and 8.92 s and 9.32 s and 8.67 s,8.87 s and 8.10 s and 6.13 s and 12.11 s,9.43 s and 10.83 s and 7.66 s and 9.27 s,None of the rats in the study experienced adverse effects,30,Analgesic effect [3]: analgesic effect
CCN(CC)CC(=O)Nc1c(C)cccc1C [lidocaine],5,significant antinociceptive effect,–,–,–,–,–,–,–,–,–,–,–,–,–,–,–,–,–,–,"Peak of the antinociceptive effect [2, 4]: 15 min; Return of the antinociceptive effect to baseline levels [2, 4]: 45 min"
CC(O)CO (stereo not drawn) [propylene glycol],–,–,–,–,–,–,–,–,–,–,–,–,–,–,–,–,–,–,–,–,Reduction of isoflurane volatility compared with NMP ([1]; Table 10 versus Table 8): not as good as NMP; Effect of the solvent on the volatility of isoflurane [1]: reduced the volatility of isoflurane
